How the values were obtained:
[1] = molecular target: Serine/threonine-protein kinase MRCK gamma (Homo sapiens) (UniProt Q6DT37)
[2] = molecular target: Serine/threonine-protein kinase RIO3 (Homo sapiens) (UniProt O14730)
[3] = molecular target: Serine/threonine-protein kinase TBK1 (Homo sapiens) (UniProt Q9UHD2)
[4] = molecular target: Epithelial discoidin domain-containing receptor 1 (Homo sapiens) (UniProt Q08345)
[5] = molecular target: Myosin light chain kinase 2, skeletal/cardiac muscle (Homo sapiens) (UniProt Q9H1R3)
[6] = molecular target: Tyrosine-protein kinase JAK2 (Homo sapiens) (UniProt O60674)
[7] = molecular target: 5-hydroxytryptamine receptor 3A (Homo sapiens) (UniProt P46098); conditions: Compound concentration 10.0 uM
[8] = tested on: Tyrosine-protein kinase ABL1 (Homo sapiens), P00519 [E255K]
[9] = molecular target: Casein kinase I isoform alpha-like (Homo sapiens) (UniProt Q8N752)
[10] = molecular target: Fibroblast growth factor receptor 4 (Homo sapiens) (UniProt P22455)
[11] = molecular target: Serine/threonine-protein kinase Sgk2 (Homo sapiens) (UniProt Q9HBY8)
[12] = molecular target: TGF-beta receptor type-1 (Homo sapiens) (UniProt P36897)
[13] = molecular target: cAMP-dependent protein kinase catalytic subunit beta (Homo sapiens) (UniProt P22694)
[14] = tested on: Receptor-type tyrosine-protein kinase FLT3 (Homo sapiens), P36888 [D835V]
[15] = molecular target: Receptor tyrosine-protein kinase erbB-4 (Homo sapiens) (UniProt Q15303)
[16] = molecular target: Cyclin-dependent kinase 19 (Homo sapiens) (UniProt Q9BWU1)
[17] = molecular target: Phosphatidylinositol 5-phosphate 4-kinase type-2 beta (Homo sapiens) (UniProt P78356)
[18] = molecular target: Death-associated protein kinase 2 (Homo sapiens) (UniProt Q9UIK4)
[19] = molecular target: Macrophage-stimulating protein receptor (Homo sapiens) (UniProt Q04912)
[20] = molecular target: Cytoplasmic tyrosine-protein kinase BMX (Homo sapiens) (UniProt P51813)
[21] = tested on: Tyrosine-protein kinase ABL1 (Homo sapiens), P00519 [H396P]
[22] = molecular target: Dual specificity mitogen-activated protein kinase kinase 6 (Homo sapiens) (UniProt P52564)
[23] = molecular target: NUAK family SNF1-like kinase 1 (Homo sapiens) (UniProt O60285)
[24] = molecular target: High affinity nerve growth factor receptor (Homo sapiens) (UniProt P04629)
[25] = molecular target: Ribosomal protein S6 kinase alpha-5 (Homo sapiens) (UniProt O75582)
[26] = molecular target: Cyclin-dependent kinase 18 (Homo sapiens) (UniProt Q07002)
[27] = tested on: Epidermal growth factor receptor (Homo sapiens), P00533 [L858R,T790M]
[28] = molecular target: Serine/threonine-protein kinase STK11 (Homo sapiens) (UniProt Q15831)
[29] = molecular target: Serine/threonine-protein kinase 26 (Homo sapiens) (UniProt Q9P289)
[30] = tested on: Epidermal growth factor receptor (Homo sapiens), P00533 [UNDEFINED MUTATION]
[31] = molecular target: Serine/threonine-protein kinase N1 (Homo sapiens) (UniProt Q16512)
[32] = molecular target: Megakaryocyte-associated tyrosine-protein kinase (Homo sapiens) (UniProt P42679)
[33] = molecular target: Mitogen-activated protein kinase 1 (Homo sapiens) (UniProt P28482)
[34] = tested on: Mast/stem cell growth factor receptor Kit (Homo sapiens), P10721 [V559D,V654A]
[35] = tested on: Receptor-type tyrosine-protein kinase FLT3 (Homo sapiens), P36888 [UNDEFINED MUTATION]
[36] = molecular target: Glycogen synthase kinase-3 alpha (Homo sapiens) (UniProt P49840)
[37] = molecular target: Serine/threonine-protein kinase 17A (Homo sapiens) (UniProt Q9UEE5)
[38] = molecular target: Ephrin type-B receptor 6 (Homo sapiens) (UniProt O15197)
[39] = molecular target: LIM domain kinase 2 (Homo sapiens) (UniProt P53671)
[40] = molecular target: Tyrosine-protein kinase receptor UFO (Homo sapiens) (UniProt P30530)
[41] = molecular target: Vascular endothelial growth factor receptor 3 (Homo sapiens) (UniProt P35916)
[42] = molecular target: Cyclin-dependent kinase 15 (Homo sapiens) (UniProt Q96Q40)
[43] = molecular target: Epidermal growth factor receptor (Homo sapiens) (UniProt P00533)
[44] = molecular target: Ephrin type-B receptor 3 (Homo sapiens) (UniProt P54753)
[45] = molecular target: Ephrin type-A receptor 4 (Homo sapiens) (UniProt P54764)
[46] = Compound concentration 100.0 nM
[47] = Compound concentration 1000.0 nM

Chain of Cyclin-dependent kinase 19 (Homo sapiens) (Q9BWU1 whole entry): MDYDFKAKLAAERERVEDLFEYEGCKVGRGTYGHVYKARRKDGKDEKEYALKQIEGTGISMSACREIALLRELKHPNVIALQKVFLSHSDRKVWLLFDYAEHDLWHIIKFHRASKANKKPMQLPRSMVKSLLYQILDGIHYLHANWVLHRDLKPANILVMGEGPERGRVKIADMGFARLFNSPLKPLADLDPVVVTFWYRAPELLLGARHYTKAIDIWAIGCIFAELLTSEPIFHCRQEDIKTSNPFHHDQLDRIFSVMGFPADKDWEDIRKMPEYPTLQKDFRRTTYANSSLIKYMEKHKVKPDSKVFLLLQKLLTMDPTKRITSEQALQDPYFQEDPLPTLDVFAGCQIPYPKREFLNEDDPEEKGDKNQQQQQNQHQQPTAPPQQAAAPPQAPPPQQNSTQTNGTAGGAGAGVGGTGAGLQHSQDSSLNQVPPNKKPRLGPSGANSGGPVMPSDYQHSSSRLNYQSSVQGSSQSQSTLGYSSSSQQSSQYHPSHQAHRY
Chain of NUAK family SNF1-like kinase 1 (Homo sapiens) (O60285 whole entry): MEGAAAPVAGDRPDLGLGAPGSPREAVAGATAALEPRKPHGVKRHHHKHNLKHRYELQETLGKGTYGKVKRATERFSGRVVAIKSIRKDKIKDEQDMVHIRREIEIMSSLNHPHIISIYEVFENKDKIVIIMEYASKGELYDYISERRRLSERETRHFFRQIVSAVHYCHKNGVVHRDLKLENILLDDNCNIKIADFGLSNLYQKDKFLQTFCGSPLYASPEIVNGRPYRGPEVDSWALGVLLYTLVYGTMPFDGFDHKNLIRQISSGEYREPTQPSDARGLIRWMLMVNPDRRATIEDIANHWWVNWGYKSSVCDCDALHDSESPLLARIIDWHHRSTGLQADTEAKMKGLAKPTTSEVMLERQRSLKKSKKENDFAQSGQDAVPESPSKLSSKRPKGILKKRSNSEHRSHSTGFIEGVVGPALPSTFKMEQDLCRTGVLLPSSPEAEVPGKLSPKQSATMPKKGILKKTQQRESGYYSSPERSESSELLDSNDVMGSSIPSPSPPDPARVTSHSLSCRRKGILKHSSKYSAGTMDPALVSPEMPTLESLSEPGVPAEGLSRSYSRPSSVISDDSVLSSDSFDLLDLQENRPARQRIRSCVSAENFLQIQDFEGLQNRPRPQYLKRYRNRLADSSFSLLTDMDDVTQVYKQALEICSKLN
Chain of Serine/threonine-protein kinase TBK1 (Homo sapiens) (Q9UHD2 whole entry, the tested form may be a part): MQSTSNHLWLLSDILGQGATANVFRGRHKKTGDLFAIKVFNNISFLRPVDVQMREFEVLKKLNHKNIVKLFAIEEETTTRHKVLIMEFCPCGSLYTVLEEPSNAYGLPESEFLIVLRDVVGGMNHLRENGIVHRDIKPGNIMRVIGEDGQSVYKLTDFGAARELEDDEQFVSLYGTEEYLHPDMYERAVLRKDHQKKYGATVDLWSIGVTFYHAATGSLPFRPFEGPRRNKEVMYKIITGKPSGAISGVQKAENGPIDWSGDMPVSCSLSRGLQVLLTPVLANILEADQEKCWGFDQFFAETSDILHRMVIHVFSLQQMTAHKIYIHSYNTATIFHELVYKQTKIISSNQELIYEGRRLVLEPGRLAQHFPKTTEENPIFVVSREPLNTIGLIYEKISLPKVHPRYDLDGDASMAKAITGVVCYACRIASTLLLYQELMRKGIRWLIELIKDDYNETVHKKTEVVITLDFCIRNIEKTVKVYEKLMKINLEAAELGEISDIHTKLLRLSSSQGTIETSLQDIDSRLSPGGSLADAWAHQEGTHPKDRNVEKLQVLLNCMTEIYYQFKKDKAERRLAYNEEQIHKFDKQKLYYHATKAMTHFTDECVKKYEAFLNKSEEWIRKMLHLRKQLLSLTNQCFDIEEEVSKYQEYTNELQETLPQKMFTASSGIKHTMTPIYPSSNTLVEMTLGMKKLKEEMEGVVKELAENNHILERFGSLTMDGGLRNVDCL
Chain of Tyrosine-protein kinase receptor UFO (Homo sapiens) (P30530 whole entry): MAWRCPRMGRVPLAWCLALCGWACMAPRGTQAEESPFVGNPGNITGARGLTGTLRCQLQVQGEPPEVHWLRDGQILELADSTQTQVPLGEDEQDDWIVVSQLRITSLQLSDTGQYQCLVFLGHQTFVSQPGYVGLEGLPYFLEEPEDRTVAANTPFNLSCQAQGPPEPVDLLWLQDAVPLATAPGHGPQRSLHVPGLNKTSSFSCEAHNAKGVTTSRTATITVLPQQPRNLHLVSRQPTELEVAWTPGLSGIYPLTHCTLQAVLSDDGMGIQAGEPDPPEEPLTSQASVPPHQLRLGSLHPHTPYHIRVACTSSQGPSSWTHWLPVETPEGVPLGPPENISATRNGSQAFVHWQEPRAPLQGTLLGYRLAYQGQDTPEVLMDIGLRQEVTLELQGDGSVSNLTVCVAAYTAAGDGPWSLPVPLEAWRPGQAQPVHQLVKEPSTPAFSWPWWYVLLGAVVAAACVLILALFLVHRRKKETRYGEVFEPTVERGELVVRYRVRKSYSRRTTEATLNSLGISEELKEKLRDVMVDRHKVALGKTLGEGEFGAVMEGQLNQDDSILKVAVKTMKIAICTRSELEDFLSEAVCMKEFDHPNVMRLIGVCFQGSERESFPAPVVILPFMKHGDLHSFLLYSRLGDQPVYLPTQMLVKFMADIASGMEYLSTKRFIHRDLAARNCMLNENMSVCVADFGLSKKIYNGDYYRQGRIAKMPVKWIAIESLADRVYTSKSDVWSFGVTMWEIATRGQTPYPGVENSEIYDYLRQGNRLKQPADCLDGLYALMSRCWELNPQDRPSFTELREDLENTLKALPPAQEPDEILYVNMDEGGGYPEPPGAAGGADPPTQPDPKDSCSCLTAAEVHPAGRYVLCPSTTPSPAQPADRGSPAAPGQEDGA
Chain of 5-hydroxytryptamine receptor 3A (Homo sapiens) (P46098 whole entry): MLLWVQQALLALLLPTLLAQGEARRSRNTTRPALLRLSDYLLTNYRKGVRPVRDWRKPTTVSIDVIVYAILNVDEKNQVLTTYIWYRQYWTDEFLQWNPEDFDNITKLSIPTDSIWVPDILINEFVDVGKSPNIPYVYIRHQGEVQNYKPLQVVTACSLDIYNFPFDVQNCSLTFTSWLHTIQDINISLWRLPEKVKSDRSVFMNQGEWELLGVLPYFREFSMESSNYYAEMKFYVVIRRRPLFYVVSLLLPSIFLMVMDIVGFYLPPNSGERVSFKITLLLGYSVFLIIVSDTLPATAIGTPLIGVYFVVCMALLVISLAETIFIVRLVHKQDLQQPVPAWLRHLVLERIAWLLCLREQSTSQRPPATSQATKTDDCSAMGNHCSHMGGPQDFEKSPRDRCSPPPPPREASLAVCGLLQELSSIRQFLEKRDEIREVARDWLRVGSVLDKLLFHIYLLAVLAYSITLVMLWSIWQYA
Chain of Serine/threonine-protein kinase STK11 (Homo sapiens) (Q15831 whole entry): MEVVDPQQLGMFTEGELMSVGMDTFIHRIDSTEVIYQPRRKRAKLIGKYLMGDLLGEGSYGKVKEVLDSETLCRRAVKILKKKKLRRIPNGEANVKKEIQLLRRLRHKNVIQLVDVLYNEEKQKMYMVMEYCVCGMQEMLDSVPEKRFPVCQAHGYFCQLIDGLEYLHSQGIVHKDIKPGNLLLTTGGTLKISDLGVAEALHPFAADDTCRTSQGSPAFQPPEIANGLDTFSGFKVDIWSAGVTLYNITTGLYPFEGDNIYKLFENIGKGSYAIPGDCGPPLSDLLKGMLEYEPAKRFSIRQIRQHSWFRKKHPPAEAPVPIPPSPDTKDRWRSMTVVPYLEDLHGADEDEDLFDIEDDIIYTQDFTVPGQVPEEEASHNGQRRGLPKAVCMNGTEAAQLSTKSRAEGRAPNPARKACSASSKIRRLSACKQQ
Chain of LIM domain kinase 2 (Homo sapiens) (P53671 whole entry, looked up, the tested form may be a part): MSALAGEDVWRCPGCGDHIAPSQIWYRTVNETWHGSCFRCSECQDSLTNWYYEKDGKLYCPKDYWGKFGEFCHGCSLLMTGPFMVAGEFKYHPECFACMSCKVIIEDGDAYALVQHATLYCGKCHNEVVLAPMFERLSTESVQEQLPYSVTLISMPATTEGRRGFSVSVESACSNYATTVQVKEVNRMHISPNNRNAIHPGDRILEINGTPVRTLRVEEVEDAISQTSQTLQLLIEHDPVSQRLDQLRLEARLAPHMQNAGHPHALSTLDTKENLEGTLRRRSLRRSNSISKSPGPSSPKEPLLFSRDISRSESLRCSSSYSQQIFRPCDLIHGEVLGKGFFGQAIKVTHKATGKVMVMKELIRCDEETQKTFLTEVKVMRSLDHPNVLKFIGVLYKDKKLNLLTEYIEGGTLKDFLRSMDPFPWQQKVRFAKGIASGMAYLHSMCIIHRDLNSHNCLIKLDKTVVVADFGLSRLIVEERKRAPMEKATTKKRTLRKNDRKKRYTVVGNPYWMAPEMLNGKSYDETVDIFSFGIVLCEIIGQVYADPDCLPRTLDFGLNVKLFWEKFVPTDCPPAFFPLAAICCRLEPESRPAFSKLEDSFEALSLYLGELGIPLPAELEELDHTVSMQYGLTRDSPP
Chain of Mitogen-activated protein kinase 1 (Homo sapiens) (P28482 whole entry): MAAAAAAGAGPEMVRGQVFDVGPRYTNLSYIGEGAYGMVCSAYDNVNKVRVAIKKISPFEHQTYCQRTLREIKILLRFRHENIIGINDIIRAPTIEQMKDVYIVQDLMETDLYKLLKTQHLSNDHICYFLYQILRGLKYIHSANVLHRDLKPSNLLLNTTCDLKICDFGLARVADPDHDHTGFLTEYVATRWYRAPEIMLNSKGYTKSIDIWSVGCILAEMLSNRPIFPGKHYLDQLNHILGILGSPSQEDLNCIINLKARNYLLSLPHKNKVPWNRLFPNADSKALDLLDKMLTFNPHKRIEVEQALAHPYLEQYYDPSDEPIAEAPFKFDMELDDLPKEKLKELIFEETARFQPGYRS

CNC(=O)c1ccc(Nc2ncc(C(F)(F)F)c(NCc3nccnc3N(C)S(C)(=O)=O)n2)cc1 [DEFACTINIB]
residual activity [1, 46]: 80% | residual activity [2, 46]: 55% | residual activity [3, 46]: 75% | residual activity [4, 46]: 100% | residual activity [5, 46]: 63% | residual activity [6, 46]: 4.8% | inhibition [7]: 6.5% | residual activity [8, 46]: 100% | residual activity [9, 46]: 77% | residual activity [10, 46]: 95% | residual activity [11, 46]: 96% | residual activity [12, 46]: 87% | residual activity [13, 46]: 93% | residual activity [14, 46]: 0.2% | residual activity [15, 46]: 84% | residual activity [16, 46]: 100% | residual activity [17, 46]: 91% | residual activity [18, 46]: 68% | residual activity [19, 46]: 100% | residual activity [20, 46]: 71% | residual activity [21, 46]: 100% | residual activity [22, 46]: 77% | residual activity [23, 46]: 31% | residual activity [24, 46]: 13% | residual activity [25, 46]: 80% | residual activity [26, 46]: 68% | residual activity [27, 46]: 91% | residual activity [28, 46]: 100% | residual activity [29, 46]: 95% | residual activity [30, 46]: 82% | residual activity [31, 46]: 100% | residual activity [32, 46]: 37% | residual activity [33, 46]: 76% | residual activity [34, 46]: 100% | residual activity [35, 46]: 26% | residual activity [36, 46]: 83% | residual activity [37, 46]: 19% | residual activity [38, 46]: 100% | residual activity [39, 46]: 87% | residual activity [40, 46]: 51% | residual activity [41, 46]: 39% | residual activity [42, 46]: 67% | residual activity [43, 46]: 88% | residual activity [44, 46]: 87% | residual activity [45, 46]: 99%

CN(c1ccnc(CNc2nc(Nc3ccc4c(c3)CC(=O)N4)ncc2C(F)(F)F)n1)S(C)(=O)=O [PF-00911705]
residual activity [1, 47]: 93% | residual activity [2, 47]: 8.5% | residual activity [3, 47]: 21% | residual activity [4, 47]: 80% | residual activity [5, 47]: 53% | residual activity [6, 47]: 3.8% | inhibition [7]: 1.24% | residual activity [8, 47]: 34% | residual activity [9, 47]: 81% | residual activity [10, 47]: 83% | residual activity [11, 47]: 75% | residual activity [12, 47]: 44% | residual activity [13, 47]: 88% | residual activity [14, 47]: 1.5% | residual activity [15, 47]: 46% | residual activity [16, 47]: 84% | residual activity [17, 47]: 4.8% | residual activity [18, 47]: 58% | residual activity [19, 47]: 72% | residual activity [20, 47]: 80% | residual activity [21, 47]: 46% | residual activity [22, 47]: 83% | residual activity [23, 47]: 21% | residual activity [24, 47]: 10% | residual activity [25, 47]: 78% | residual activity [26, 47]: 100% | residual activity [27, 47]: 56% | residual activity [28, 47]: 72% | residual activity [29, 47]: 46% | residual activity [30, 47]: 57% | residual activity [31, 47]: 43% | residual activity [32, 47]: 65% | residual activity [33, 47]: 70% | residual activity [34, 47]: 67% | residual activity [35, 47]: 5.5% | residual activity [36, 47]: 64% | residual activity [37, 47]: 11% | residual activity [38, 47]: 54% | residual activity [39, 47]: 94% | residual activity [40, 47]: 21% | residual activity [41, 47]: 92% | residual activity [42, 47]: 63% | residual activity [43, 47]: 74% | residual activity [44, 47]: 95% | residual activity [45, 47]: 90%

Source: ChEMBL document CHEMBL4507299, “Data for DCP probe PF-04554878” (2021)
